Converted amounts (≈) assume the structure as drawn. “And” between values parts separate entries of the source, which are not always exact repeats. Equal values may be shown once. Read-outs that look alike come from different tables or passages of the source.
Experiments:
[1] = target: T1, Serotonin (5-hydroxytryptamine) 5-HT2B (Homo sapiens, UniProt P41595); experiment: Receptor Profiling 271700; format: binding
T1 construct: Eurofins Discovery Services (contract assay) 271700
Experimental: (§1) Several in vitro selectivity assays were performed at Eurofins Discovery Services using established methods and controls that behaved as expected (Supplementary Tables 5 and 6). […] For receptor panel profiling, MBX-4132 was evaluated at 10 μM and activity of >50% (agonist or antagonist; note that negative % inhibition indicates agonism) was scored as active.

Streptococcus pneumoniae = experiment: MIC, microbroth dilution; format: cell-based
[2] = tested on: N. gonorrhoeae strain 49226 (ATCC); experiment: Frequency of resistance; format: cell-based, Neisseria gonorrhoeae; details: selection at 4x and 8x MIC
Adrenergic β1 = target: T2, Adrenergic β1 (Homo sapiens, UniProt P08588); experiment: Receptor Profiling 204010; format: binding
T2 construct: purchased Eurofins Discovery Services (Panlabs safety panel)
Experimental: as §1

Androgen (testosterone) = target: T3, Androgen (testosterone) (Homo sapiens, UniProt P10275); experiment: Receptor Profiling 206000; format: binding
T3 construct: purchased Eurofins Discovery Services (Panlabs safety panel)
Experimental: as §1

[3] = Multiplexed cytotoxicity assay (nuclei, ROS, TMRE); format: cell-based, human; details: human, human primary hepatocytes; for fold induction at 24 h, 1 μM: 1.00E+00 μM; for fold induction at 24 h, 10 μM: 1.00E+01 μM; for fold induction at 24 h, 100 μM: 1.00E+02 μM; for fold induction at 24 h, 0.1 μM: 1.00E-01 μM; for fold induction at 24 h, 0.0101 μM: 1.01E-02 μM; for fold induction at 24 h, 31.6 μM: 3.16E+01 μM; for fold induction at 24 h, 3.17 μM: 3.17E+00 μM; for fold induction at 24 h, 0.317 μM: 3.17E-01 μM; for fold induction at 24 h, 0.0318 μM: 3.18E-02 μM; for fold induction at 24 h, 0.00318 μM: 3.18E-03 μM
Experimental: (§2) Multiplexed cytotoxicity assay — Human primary hepatocytes were grown on collagen I coated optical plates, cultured in hepatocytes culture media in a humidified 5% CO2 atmosphere at 37 °C. Cells were incubated in the presence of MBX-4132 at 10 concentrations starting a 100 µM and serially diluted 3.16-fold for 24 h at 37 °C, incubated for 30 min with multiplexed fluorescent dyes (Hoescht, 6-carboxy-2’,7’-dichlorodihydrofluorescein diazetat, and TMRE) and imaged to allow visualization of nuclei, reactive oxygen species generation, and mitochondrial oxidation. A >3.5-fold induction of ROS was considered consistent with formation of ROS and a >2-fold change in TMRE signal indicated an increase or decrease in mitochondrial membrane potential.

[4] = tested on: mitochondrial membrane potential (MMP, TMRE signal); experiment: Multiplexed cytotoxicity assay (nuclei, ROS, TMRE); format: cell-based, human; details: human, primary hepatocytes, 24 h, read-out: MMP inhibition (fold induction)
Experimental: as §2

[5] = tested on: Human primary hepatocytes; experiment: Multiplexed cytotoxicity assay (nuclei, ROS, TMRE); format: cell-based
Experimental: as §2

[6] = tested on: reactive oxygen species (ROS) generation; experiment: Multiplexed cytotoxicity assay (nuclei, ROS, TMRE); format: cell-based, human; details: human, primary hepatocytes, 24 h
Experimental: as §2

CYP2C19 = target: T4, CYP2C19 (Homo sapiens, UniProt P33261); experiment: Cyp inhibition assay 4874; format: in vitro ADME; details: catalog reference 4874, read-out: pIC50 (µM) reported (converted)
T4 construct: Eurofins Discovery Services (contract assay) 4874
Experimental: as §1

[7] = read-out: Mean MMP inhibition (fold induction)
[8] = read-out: Mean ROS (fold induction)

T4 sequence (P33261 whole entry): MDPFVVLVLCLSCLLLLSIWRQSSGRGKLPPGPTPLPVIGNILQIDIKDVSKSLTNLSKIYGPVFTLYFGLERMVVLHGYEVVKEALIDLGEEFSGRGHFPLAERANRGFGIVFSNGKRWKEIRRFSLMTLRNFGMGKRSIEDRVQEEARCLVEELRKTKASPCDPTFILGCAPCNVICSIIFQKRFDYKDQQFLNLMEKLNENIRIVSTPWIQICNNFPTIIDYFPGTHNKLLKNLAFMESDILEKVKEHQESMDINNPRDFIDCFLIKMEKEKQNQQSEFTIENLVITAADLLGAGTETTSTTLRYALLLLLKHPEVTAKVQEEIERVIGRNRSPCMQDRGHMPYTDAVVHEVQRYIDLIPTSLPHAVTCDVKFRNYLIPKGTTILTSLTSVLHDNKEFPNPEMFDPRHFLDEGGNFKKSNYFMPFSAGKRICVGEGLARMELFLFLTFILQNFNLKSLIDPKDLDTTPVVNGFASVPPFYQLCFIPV
T1 sequence (P41595 whole entry): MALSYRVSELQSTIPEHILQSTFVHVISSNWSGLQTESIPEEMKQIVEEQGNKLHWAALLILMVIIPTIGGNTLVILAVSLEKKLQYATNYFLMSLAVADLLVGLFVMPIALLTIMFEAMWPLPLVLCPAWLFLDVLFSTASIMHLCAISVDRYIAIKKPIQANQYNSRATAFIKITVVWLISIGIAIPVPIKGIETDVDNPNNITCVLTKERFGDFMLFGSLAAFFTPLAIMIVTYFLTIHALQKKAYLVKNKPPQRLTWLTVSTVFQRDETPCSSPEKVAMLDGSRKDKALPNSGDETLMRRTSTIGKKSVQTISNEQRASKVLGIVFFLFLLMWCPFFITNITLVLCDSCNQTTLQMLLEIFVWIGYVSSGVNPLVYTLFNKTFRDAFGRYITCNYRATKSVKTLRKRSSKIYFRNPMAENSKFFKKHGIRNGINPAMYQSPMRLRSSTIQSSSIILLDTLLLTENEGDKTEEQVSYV
T3 sequence (P10275 whole entry): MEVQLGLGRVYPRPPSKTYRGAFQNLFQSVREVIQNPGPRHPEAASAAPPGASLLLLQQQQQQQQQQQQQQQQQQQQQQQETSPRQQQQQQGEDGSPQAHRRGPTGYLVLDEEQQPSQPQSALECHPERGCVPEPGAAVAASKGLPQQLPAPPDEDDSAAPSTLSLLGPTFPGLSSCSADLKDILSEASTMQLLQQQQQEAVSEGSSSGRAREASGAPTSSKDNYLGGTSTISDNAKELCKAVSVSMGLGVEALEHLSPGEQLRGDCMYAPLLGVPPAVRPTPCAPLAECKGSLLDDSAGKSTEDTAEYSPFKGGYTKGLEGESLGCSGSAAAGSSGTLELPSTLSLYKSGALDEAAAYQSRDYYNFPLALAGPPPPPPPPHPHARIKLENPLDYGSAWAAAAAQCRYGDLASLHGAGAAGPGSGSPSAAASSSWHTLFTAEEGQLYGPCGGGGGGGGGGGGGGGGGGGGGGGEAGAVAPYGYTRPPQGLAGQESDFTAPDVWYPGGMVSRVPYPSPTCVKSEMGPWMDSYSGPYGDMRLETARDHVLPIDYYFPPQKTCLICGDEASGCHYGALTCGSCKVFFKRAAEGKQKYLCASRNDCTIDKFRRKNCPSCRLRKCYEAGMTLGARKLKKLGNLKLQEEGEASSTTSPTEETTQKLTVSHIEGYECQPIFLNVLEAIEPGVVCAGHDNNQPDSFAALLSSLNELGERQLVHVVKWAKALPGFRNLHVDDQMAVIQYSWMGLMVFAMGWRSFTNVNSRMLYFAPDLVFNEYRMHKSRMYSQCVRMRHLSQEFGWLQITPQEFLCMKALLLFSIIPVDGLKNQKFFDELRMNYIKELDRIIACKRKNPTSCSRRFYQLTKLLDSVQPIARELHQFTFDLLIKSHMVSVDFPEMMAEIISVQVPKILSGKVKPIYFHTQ
T2 sequence (P08588 whole entry): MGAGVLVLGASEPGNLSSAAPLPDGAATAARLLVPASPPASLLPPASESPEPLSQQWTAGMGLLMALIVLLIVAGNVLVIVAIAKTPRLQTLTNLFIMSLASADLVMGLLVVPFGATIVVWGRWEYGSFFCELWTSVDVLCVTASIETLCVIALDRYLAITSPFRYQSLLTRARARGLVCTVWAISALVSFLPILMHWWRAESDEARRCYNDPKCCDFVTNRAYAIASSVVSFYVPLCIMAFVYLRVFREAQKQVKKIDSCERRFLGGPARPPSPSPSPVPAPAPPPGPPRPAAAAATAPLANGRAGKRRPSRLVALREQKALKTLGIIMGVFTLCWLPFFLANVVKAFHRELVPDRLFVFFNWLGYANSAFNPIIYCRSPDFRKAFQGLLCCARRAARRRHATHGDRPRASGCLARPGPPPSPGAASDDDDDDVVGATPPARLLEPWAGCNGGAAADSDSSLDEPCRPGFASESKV

O=C(Nc1nnc(-c2ccc(F)cc2)o1)N1CCc2ccccc2C1 [MBX-4132]
inhibition at 10 µM [1]: 44%
MIC (Streptococcus pneumoniae; Streptococcus pneumoniae ATCC 49619, replicates): 34 µg/mL (≈ 100 µM)
MIC (Streptococcus pneumoniae; Streptococcus pneumoniae, ATCC49619, strain ATCC 49619, read-out: MIC): 34 µg/mL (≈ 100 µM)
frequency of spontaneous mutants resistant [2]: < 1.2 × 10^−9
inhibition at 10 µM (Adrenergic β1): -8%
inhibition at 10 µM (Androgen (testosterone)): -2%
fold induction at 24 h, 1 μM [3, 7]: 0.9
fold induction at 24 h, 1 μM [3, 8]: 1.2
fold induction at 24 h, 10 μM [3, 7]: 1.1
fold induction at 24 h, 10 μM [3, 8]: 1.9
fold induction at 24 h, 100 μM [3, 7]: 0.8
fold induction at 24 h, 100 μM [3, 8]: 9.2
fold induction at 24 h, 0.1 μM [3, 7]: 1.2
fold induction at 24 h, 0.1 μM [3, 8]: 1.4
fold induction at 24 h, 0.0101 μM [3, 7]: 1
fold induction at 24 h, 0.0101 μM [3, 8]: 1.4
fold induction at 24 h, 31.6 μM [3, 7]: 1.1
fold induction at 24 h, 31.6 μM [3, 8]: 1.3
fold induction at 24 h, 3.17 μM [3, 7]: 1
fold induction at 24 h, 3.17 μM [3, 8]: 1.1
fold induction at 24 h, 0.317 μM [3, 7]: 0.9
fold induction at 24 h, 0.317 μM [3, 8]: 1.2
fold induction at 24 h, 0.0318 μM [3, 7]: 0.9
fold induction at 24 h, 0.0318 μM [3, 8]: 0.9
fold induction at 24 h, 0.00318 μM [3, 7]: 1
fold induction at 24 h, 0.00318 μM [3, 8]: 3.1
fold induction at 24 h, 1 μM ([4]; 1.00E+00 μM): 0.9
fold induction at 24 h, 10 μM ([4]; 1.00E+01 μM): 1.1
fold induction at 24 h, 0.1 μM ([4]; 1.00E-01 μM): 1.2
fold induction at 24 h, 0.0101 μM ([4]; 1.01E-02 μM): 1
fold induction at 24 h, 31.6 μM ([4]; 3.16E+01 μM): 1.1
fold induction at 24 h, 3.17 μM ([4]; 3.17E+00 μM): 1
fold induction at 24 h, 0.317 μM ([4]; 3.17E-01 μM): 0.9
fold induction at 24 h, 0.0318 μM ([4]; 3.18E-02 μM): 0.9
fold induction at 24 h, 0.00318 μM ([4]; 3.18E-03 μM): 1
Attached live cells (%) ([5]; 1.00E+00 μM, 24 h): 106.3%
Attached live cells (%) ([5]; 1.00E+00 μM, replicates): 108.6% and 104.0%
Attached live cells (%) ([5]; 1.00E+01 μM, 24 h): 97.7%
Attached live cells (%) ([5]; 1.00E+01 μM, replicates): 104.3% and 91.1%
Attached live cells (%) ([5]; 1.00E+02 μM, 24 h): 69.6%
Attached live cells (%) ([5]; 1.00E+02 μM, replicates): 78.3% and 60.9%
Attached live cells (%) ([5]; 1.00E-01 μM, 24 h): 96.7%
Attached live cells (%) ([5]; 1.00E-01 μM, replicates): 101.6% and 91.8%
Attached live cells (%) ([5]; 1.01E-02 μM, 24 h): 109.5%
Attached live cells (%) ([5]; 1.01E-02 μM, replicates): 115.4% and 103.6%
Attached live cells (%) ([5]; 3.16E+01 μM, 24 h): 89.5%
Attached live cells (%) ([5]; 3.16E+01 μM, replicates): 92.0% and 87.0%
Attached live cells (%) ([5]; 3.17E+00 μM, 24 h): 99.6%
Attached live cells (%) ([5]; 3.17E+00 μM, replicates): 103.9% and 95.3%
Attached live cells (%) ([5]; 3.17E-01 μM, 24 h): 114.0%
Attached live cells (%) ([5]; 3.17E-01 μM, replicates): 124.2% and 103.8%
Attached live cells (%) ([5]; 3.18E-02 μM, 24 h): 97.5%
Attached live cells (%) ([5]; 3.18E-02 μM, replicates): 106.1% and 88.9%
Attached live cells (%) ([5]; 3.18E-03 μM, 24 h): 105.6%
Attached live cells (%) ([5]; 3.18E-03 μM, replicates): 110.9% and 100.3%
effect on mitochondrial membrane polarity (in words) ([5]; high concentrations, human hepatocytes): no effect
fold induction at 24 h, 1 μM ([6]; 1.00E+00 μM): 1.2
fold induction at 24 h, 0.1 μM ([6]; 1.00E-01 μM): 1.4
fold induction at 24 h, 0.0101 μM ([6]; 1.01E-02 μM): 1.4
fold induction at 24 h, 3.17 μM ([6]; 3.17E+00 μM): 1.1
fold induction at 24 h, 0.317 μM ([6]; 3.17E-01 μM): 1.2
fold induction at 24 h, 0.0318 μM ([6]; 3.18E-02 μM): 0.9
IC50 (CYP2C19): > 100 µM

Reference: article PMC7979765, “trans-Translation inhibitors bind to a novel site on the ribosome and clear Neisseria gonorrhoeae in vivo” (Nature Communications, 2021)
